Data taken from ChEMBL document CHEMBL6078677, “Discovery and optimization of tetrahydroacridine derivatives as a novel class of antibiotics against multidrug-resistant Gram-positive pathogens by targeting type I signal peptidase and disrupting bacterial membrane” (Eur J Med Chem, 2025).
≈ marks a conversion by molar mass, not a printed value.

Tests used:
Staphylococcus aureus [1] = experiment: Antimicrobial activity against Staphylococcus aureus ATCC 29213 assessed as inhibition of visible growth of bacteria incubated for 20 hrs by broth microdilution method; assay type: functional
Enterococcus faecium [2] = experiment: Antimicrobial activity against Enterococcus faecium QF31 harboring erythromycin resistance rRNA methylase B and chloramphenicol-florfenicol resistance methylase assessed as inhibition of visible growth of bacteria incubated for 20 hrs by broth microdilution method; assay type: functional
Enterococcus faecalis [3] = experiment: microbe, parasite or virus in culture; assay type: functional; conditions: SF23-1, time 20 hrs
Description: Antimicrobial activity against Enterococcus faecalis SF23-1 harboring erythromycin-resistance rRNA methylase B, tetracycline efflux protein L and chloramphenicol-florfenicol resistance methylase assessed as inhibition of visible growth of bacteria incubated for 20 hrs by broth microdilution method

Streptococcus suis = experiment: Antimicrobial activity against Streptococcus suis P1/7 assessed as inhibition of visible growth of bacteria incubated for 20 hrs by broth microdilution method; assay type: functional
Staphylococcus aureus [4] = experiment: Antimicrobial activity against Staphylococcus aureus YZSA-15 harboring erythromycin resistance rRNA methylase C and vancomycin resistance locus assessed as inhibition of visible growth of bacteria incubated for 20 hrs by broth microdilution method; assay type: functional
Staphylococcus aureus [5] = experiment: Antimicrobial activity against Staphylococcus aureus YZSA-21 harboring erythromycin resistance rRNA methylase C assessed as inhibition of visible growth of bacteria incubated for 20 hrs by broth microdilution method; assay type: functional
Staphylococcus aureus [6] = experiment: Antimicrobial activity against Staphylococcus aureus YZSA-24 harboring erythromycin resistance rRNA methylase C and methicillin resistance gene resistance locus assessed as inhibition of visible growth of bacteria incubated for 20 hrs by broth microdilution method; assay type: functional
Enterococcus faecium [7] = experiment: Antimicrobial activity against Enterococcus faecium HFY01 assessed as inhibition of visible growth of bacteria incubated for 20 hrs by broth microdilution method; assay type: functional
Enterococcus faecium [8] = experiment: Antimicrobial activity against Enterococcus faecium MC38 harboring erythromycin resistance rRNA methylase B and oxazolidinone-phenicol transferable resistance gene assessed as inhibition of visible growth of bacteria incubated for 20 hrs by broth microdilution method; assay type: functional
Enterococcus faecalis [9] = experiment: Antimicrobial activity against Enterococcus faecalis JH2-2 assessed as inhibition of visible growth of bacteria incubated for 20 hrs by broth microdilution method; assay type: functional
Enterococcus faecalis [10] = experiment: Antimicrobial activity against Enterococcus faecalis ES01 harboring erythromycin-resistance rRNA methylase B and vanB-type vancomycin-resistance locus assessed as inhibition of visible growth of bacteria incubated for 20 hrs by broth microdilution method; assay type: functional
Enterococcus faecalis [11] = experiment: Antimicrobial activity against Enterococcus faecalis J2 harboring erythromycin-resistance rRNA methylase B and oxazolidinone phenicol transferable resistance gene assessed as inhibition of visible growth of bacteria incubated for 20 hrs by broth microdilution method; assay type: functional
Streptococcus pyogenes = experiment: Antimicrobial activity against Streptococcus pyogenes DL02 harboring erythromycin-resistance rRNA methylase B assessed as inhibition of visible growth of bacteria incubated for 20 hrs by broth microdilution method; assay type: functional
Streptococcus agalactiae = experiment: Antimicrobial activity against Streptococcus agalactiae DL03 harboring erythromycin-resistance rRNA methylase B assessed as inhibition of visible growth of bacteria incubated for 20 hrs by broth microdilution method; assay type: functional
Salmonella enteritidis = experiment: Antimicrobial activity against Salmonella enteritis S1 assessed as inhibition of visible growth of bacteria incubated for 20 hrs by broth microdilution method; assay type: functional, Salmonella enterica subsp. enterica serovar Enteritidis; conditions: Salmonella enterica
Klebsiella pneumoniae = experiment: Antimicrobial activity against Klebsiella pneumoniae 9-1 assessed as inhibition of visible growth of bacteria incubated for 20 hrs by broth microdilution method; assay type: functional
Acinetobacter baumannii [12] = experiment: Antimicrobial activity against Acinetobacter baumannii AB11 assessed as inhibition of visible growth of bacteria incubated for 20 hrs by broth microdilution method; assay type: functional
Acinetobacter baumannii [13] = experiment: Antimicrobial activity against Acinetobacter baumannii 7979 assessed as inhibition of visible growth of bacteria incubated for 20 hrs by broth microdilution method; assay type: functional
Pseudomonas aeruginosa [14] = experiment: Antimicrobial activity against Pseudomonas aeruginosa PA01 assessed as inhibition of visible growth of bacteria incubated for 20 hrs by broth microdilution method; assay type: functional
Pseudomonas aeruginosa [15] = experiment: Antimicrobial activity against Pseudomonas aeruginosa PA14 assessed as inhibition of visible growth of bacteria incubated for 20 hrs by broth microdilution method; assay type: functional

CC1C/C(=C\c2nc(-c3ccc(Cl)c(C(F)(F)F)c3)cs2)c2nc3ccccc3c(C(=O)O)c2C1 (racemic)
MIC (Staphylococcus aureus [1]): 16 µg/mL (≈ 31.1 µM)
MIC (Enterococcus faecium [2]): 32 µg/mL (≈ 62.1 µM)
MIC (Enterococcus faecalis [3]): 16 µg/mL (≈ 31.1 µM)
MIC (Streptococcus suis): 64 µg/mL (≈ 124 µM)

CCCCCCCCc1ccc(-c2ccc(/C=C3\CC(C)Cc4c3nc3ccc(OC)cc3c4C(=O)O)cc2)cc1 (racemic)
MIC (Staphylococcus aureus [1]): > 64 µg/mL
MIC (Enterococcus faecium [2]): 8 µg/mL (≈ 14.6 µM)
MIC (Enterococcus faecalis [3]): 16 µg/mL (≈ 29.2 µM)
MIC (Streptococcus suis): 32 µg/mL (≈ 58.4 µM)

CC1(C)C/C(=C\c2ccc(-c3cccc(Cl)c3Cl)o2)c2nc3ccccc3c(C(=O)O)c2C1
MIC (Staphylococcus aureus [1]): 16 µg/mL (≈ 33.4 µM)
MIC (Enterococcus faecium [2]): 8 µg/mL (≈ 16.7 µM)
MIC (Enterococcus faecalis [3]): 8 µg/mL (≈ 16.7 µM)
MIC (Streptococcus suis): > 64 µg/mL

COc1ccc2nc3c(c(C(=O)O)c2c1)CC(C)C/C3=C\c1ccc(Oc2c(Cl)cc(N)cc2Cl)cc1 (racemic)
MIC (Staphylococcus aureus [1]): 4 µg/mL (≈ 7.47 µM)
MIC (Enterococcus faecium [2]): 8 µg/mL (≈ 14.9 µM)
MIC (Enterococcus faecalis [3]): 16 µg/mL (≈ 29.9 µM)
MIC (Streptococcus suis): 64 µg/mL (≈ 120 µM)

CC1C/C(=C\c2ccc(-c3ccc(Cl)cc3)o2)c2nc3ccccc3c(C(=O)O)c2C1 (racemic)
MIC (Staphylococcus aureus [1]): 8 µg/mL (≈ 18.6 µM)
MIC (Enterococcus faecium [2]): 16 µg/mL (≈ 37.2 µM)
MIC (Enterococcus faecalis [3]): > 64 µg/mL
MIC (Streptococcus suis): 32 µg/mL (≈ 74.4 µM)

CC1C/C(=C\c2ccc(-c3ccc(Cl)c(Cl)c3)o2)c2nc3ccccc3c(C(=O)O)c2C1 (racemic)
MIC (Staphylococcus aureus [1]): 8 µg/mL (≈ 17.2 µM)
MIC (Enterococcus faecium [2]): 16 µg/mL (≈ 34.5 µM)
MIC (Enterococcus faecalis [3]): 8 µg/mL (≈ 17.2 µM)
MIC (Streptococcus suis): > 64 µg/mL

CC1C/C(=C\c2ccc(-c3cccc(Cl)c3Cl)cc2)c2nc3ccccc3c(C(=O)O)c2C1 (racemic)
MIC (Staphylococcus aureus [1]): 2 µg/mL (≈ 4.22 µM)
MIC (Enterococcus faecium [2]): 8 µg/mL (≈ 16.9 µM)
MIC (Enterococcus faecalis [3]): 8 µg/mL (≈ 16.9 µM)
MIC (Streptococcus suis): > 64 µg/mL

CC1C/C(=C\c2ccc(-c3c(Cl)cc(C(F)(F)F)cc3Cl)cc2)c2nc3ccccc3c(C(=O)O)c2C1 (racemic)
MIC (Staphylococcus aureus [1]): 4 µg/mL (≈ 7.37 µM)
MIC (Enterococcus faecium [2]): 8 µg/mL (≈ 14.7 µM)
MIC (Enterococcus faecalis [3]): 8 µg/mL (≈ 14.7 µM)
MIC (Streptococcus suis): > 64 µg/mL

FC(F)(F)c1cc(-c2ccc(/C=C3\CCCc4c3nc3ccccc3c4Cl)o2)ccc1Cl
MIC (Staphylococcus aureus [1]): > 64 µg/mL
MIC (Enterococcus faecium [2]): 64 µg/mL (≈ 135 µM)
MIC (Enterococcus faecalis [3]): > 64 µg/mL
MIC (Streptococcus suis): > 64 µg/mL

CC1(C)S[C@@H]2[C@H](NC(=O)[C@H](N)c3ccccc3)C(=O)N2[C@H]1C(=O)O [AMPICILLIN]
MIC (Staphylococcus aureus [1]): 1 µg/mL (≈ 2.86 µM)
MIC (Enterococcus faecium [2]): 16 µg/mL (≈ 45.8 µM)
MIC (Streptococcus suis): ≤ 0.5 µg/mL
MIC (Staphylococcus aureus [4]): 2 µg/mL (≈ 5.72 µM)
MIC (Staphylococcus aureus [5]): 1 µg/mL (≈ 2.86 µM)
MIC (Staphylococcus aureus [6]): > 32 µg/mL
MIC (Enterococcus faecium [7]): 1 µg/mL (≈ 2.86 µM)
MIC (Enterococcus faecium [8]): 32 µg/mL (≈ 91.6 µM)
MIC (Enterococcus faecalis [9]): 16 µg/mL (≈ 45.8 µM)
MIC (Enterococcus faecalis [10]): 16 µg/mL (≈ 45.8 µM)
MIC (Enterococcus faecalis [11]): > 32 µg/mL
MIC (Streptococcus pyogenes): 0.5 µg/mL (≈ 1.43 µM)
MIC (Streptococcus agalactiae): 0.5 µg/mL (≈ 1.43 µM)
MIC (Salmonella enteritidis): 32 µg/mL (≈ 91.6 µM)
MIC (Klebsiella pneumoniae): > 32 µg/mL
MIC (Acinetobacter baumannii [12]): < 0.06 µg/mL
MIC (Acinetobacter baumannii [13]): > 32 µg/mL
MIC (Pseudomonas aeruginosa [14]): > 32 µg/mL
MIC (Pseudomonas aeruginosa [15]): > 32 µg/mL

O=C(O)c1c2c(nc3ccccc13)/C(=C/c1ccc(-c3ccc(Cl)cc3)o1)CCC2
MIC (Staphylococcus aureus [1]): 16 µg/mL (≈ 38.5 µM)
MIC (Enterococcus faecium [2]): 16 µg/mL (≈ 38.5 µM)
MIC (Enterococcus faecalis [3]): > 64 µg/mL
MIC (Streptococcus suis): 32 µg/mL (≈ 76.9 µM)

CC1C/C(=C\c2ccc(-c3ccc(Cl)c(C(F)(F)F)c3)nc2)c2nc3ccccc3c(C(=O)O)c2C1 (racemic)
MIC (Staphylococcus aureus [1]): 4 µg/mL (≈ 7.86 µM)
MIC (Enterococcus faecium [2]): 8 µg/mL (≈ 15.7 µM)
MIC (Enterococcus faecalis [3]): 8 µg/mL (≈ 15.7 µM)
MIC (Streptococcus suis): > 64 µg/mL

CC1C/C(=C\c2ncc([N+](=O)[O-])n2C)c2nc3ccccc3c(C(=O)O)c2C1 (racemic)
MIC (Staphylococcus aureus [1]): > 64 µg/mL
MIC (Enterococcus faecium [2]): > 64 µg/mL
MIC (Enterococcus faecalis [3]): > 64 µg/mL
MIC (Streptococcus suis): > 64 µg/mL

Cc1cc(/C=C2\CC(C)Cc3c2nc2ccccc2c3C(=O)O)cc(C)c1Oc1ccc([N+](=O)[O-])cc1 (racemic)
MIC (Staphylococcus aureus [1]): 4 µg/mL (≈ 8.09 µM)
MIC (Enterococcus faecium [2]): 8 µg/mL (≈ 16.2 µM)
MIC (Enterococcus faecalis [3]): 16 µg/mL (≈ 32.4 µM)
MIC (Streptococcus suis): > 64 µg/mL

CC1C/C(=C\c2ccc(-c3ccc(Cl)c(C(F)(F)F)c3)o2)c2nc3ccccc3c(C(=O)N3CCN(C)CC3)c2C1 (racemic)
MIC (Staphylococcus aureus [1]): > 64 µg/mL
MIC (Enterococcus faecium [2]): > 64 µg/mL
MIC (Enterococcus faecalis [3]): > 64 µg/mL
MIC (Streptococcus suis): > 64 µg/mL

CC1C/C(=C\c2cc3ccc(Br)cc3s2)c2nc3ccccc3c(C(=O)O)c2C1 (racemic)
MIC (Staphylococcus aureus [1]): 16 µg/mL (≈ 34.5 µM)
MIC (Enterococcus faecium [2]): 64 µg/mL (≈ 138 µM)
MIC (Enterococcus faecalis [3]): 16 µg/mL (≈ 34.5 µM)
MIC (Streptococcus suis): 64 µg/mL (≈ 138 µM)

O=C(O)C1=c2ccccc2=NC2/C(=C/c3cccc(-c4ccc(Cl)c(C(F)(F)F)c4)c3)CCC12 (stereo unspecified)
MIC (Staphylococcus aureus [1]): > 64 µg/mL
MIC (Enterococcus faecium [2]): > 64 µg/mL
MIC (Enterococcus faecalis [3]): > 64 µg/mL
MIC (Streptococcus suis): > 64 µg/mL

CC1C/C(=C\c2cccc(-c3ccc(Cl)c(C(F)(F)F)c3)c2)c2nc3ccccc3c(C(N)=O)c2C1 (racemic)
MIC (Staphylococcus aureus [1]): > 64 µg/mL
MIC (Enterococcus faecium [2]): > 64 µg/mL
MIC (Enterococcus faecalis [3]): > 64 µg/mL
MIC (Streptococcus suis): > 64 µg/mL

CC1C/C(=C\c2ccc(-c3ccc(Cl)c(C(F)(F)F)c3)o2)c2nc3ccccc3c(C(=O)O)c2C1 (racemic)
MIC (Staphylococcus aureus [1]): 2 µg/mL (≈ 4.02 µM)
MIC (Enterococcus faecium [2]): 8 µg/mL (≈ 16.1 µM)
MIC (Enterococcus faecalis [3]): 8 µg/mL (≈ 16.1 µM)
MIC (Streptococcus suis): 32 µg/mL (≈ 64.3 µM)
